# Like-named read-outs stand apart in the source and are kept apart here.
# How the values were obtained:
# [1] = Metabolite identification after 120 min incubation in human hepatocytes (LC-UV-MSn); format: in vitro ADME; settings: human hepatocytes, 10 μM, 120 min
# Description: The purpose of this experiment was to confirm the metabolites of a series of compounds after incubation for 120 minutes in human hepatocytes using LC-UV-MS^n (n=1-2) detection. MS and MS^2 data were analyzed using MetaboLynx™ software after data collection.
# Alter incubating the sample for 2 h, the protein was precipitated by using acetonitrile containing 01.% formic acid, centrifuged, and the supernatant was taken out and dried an under nitrogen, and dissolved and then injected for analysis.
# [2] = Pharmacokinetics in SD rats after IV and PO administration; format: in vivo; settings: rat
# Description: Drug concentrations in plasma of (−)-WX001 and (+)-WX002 were measured by LC/MS/MS method at different times after SD rats as tested animals were administered (−)-WX001 and (+)-WX002 by IV (intravenous injection) and PO (gavage), and the pharmacokinetic behavior of the compound in the present invention in rats was investigated, and its pharmacokinetic characteristics were evaluated.
# 12 healthy adult male SD rats were divided into 4 groups (each compound contained IV and PO group), 3 rats per group. SD rats were purchased from Shanghai Slac Laboratory Animal CO.LTD, whose animal production license number was SCXK (Shanghai) 2012-0002.
# The appropriate amount of the sample was weighed, added a certain amount of DMSO and ultrasonic dissolved, and then was added 20% hydroxypropyl-β-cyclodextrin solution to give tested compound which was 1 mg/mL 5% DMSO/95% 20% HPCD clear solution used for IV and PO administration.
# 12 SD rats were divided into 4 groups and there were 3 male rats in each group, and administrated by IV, PO, respectively after fasting overnight. The dose of IV was 2 mg/kg and administration volume was 2 mL/kg; the dose of PO was 10 mg/kg and administration volume was 10 mL/kg.
# In group of IV, about 200 μL of blood was collected at 0.083, 0.25, 0.5, 1, 2, 4, 6, 8, 24 hour after administration, placed in an anticoagulant tube of K2-EDTA, centrifuged at 3000 rpm for 15 minutes, and then plasma was separated and stored at −80° C. In group of PO, blood was collected at 0.25, 0.5, 1, 2, 4, 6, 8, 24 hour after administration, and the other operations were the same as the group of IV. The plasma samples were pretreated through precipitated protein and the plasma concentration was determined by LC/MS/MS method. A linear range of the analytical method was 4.00-6000 nM.
# [3] = liver microsome, rat; cited from earlier work
# [4] = liver microsome, dog; cited from earlier work
# [5] = liver microsome, monkey; cited from earlier work
# [6] = liver microsome, human; cited from earlier work
# [7] = hepatocyte, rat; cited from earlier work
# [8] = hepatocyte, dog; cited from earlier work
# [9] = hepatocyte, monkey; cited from earlier work
# [10] = hepatocyte, human; cited from earlier work
# [11] = human, 0-144 h, after Lesinurad, cited from earlier work
compound,measurement,setting,value
"O=C(O)CSc1nnc(Br)n1-c1ccc(C2CC2)c2ccccc12 (racemic) [(±)-Lesinurad, Lesinurad, reference compound]",Percentage of ultraviolet area,[1],95.60%
same,bioavailability,"[2]; male, SD, plasma, po, 10 mg/kg, PO 10 mpk, read-out: Bioavailability F",84%
same,Area under curve AUC0-inf,[2]; IV 2 mpk,14.823 µM·h
same,C0,"[2]; IV 2 mpk, read-out: Starting concentration C0",11.6 µM
same,Area under curve AUC0-inf,[2]; PO 10 mpk,62.491 µM·h
same,Cmax,"[2]; PO 10 mpk, read-out: Peak concentration Cmax",14.5 µM
same,amount of metabolite / parent found (Total 100),[3],100
same,amount of metabolite / parent found (Total 100),[4],100
same,amount of metabolite / parent found (Total 100),[5],92.1
same,amount of metabolite / parent found (Total 100),[6],100
same,amount of metabolite / parent found (Total 100),[7],100
same,amount of metabolite / parent found (Total 100),[8],100
same,amount of metabolite / parent found (Total 100),[9],98.1
same,amount of metabolite / parent found (Total 100),[10],92.1
same,Percentage of administered dose,[11]; Feces,1.5%
same,Percentage of administered dose,[11]; Urine,31.3%

# — US10633351B2, “Halogenated compound and axially chiral isomer thereof” (MEDSHINE DISCOVERY INC., priority 2016, dated 2020)
